Experimental data as given in US11161830B2, “4-pyridone compound or salt thereof, and pharmaceutical composition and formulation including same” (priority 2017, dated 2021).
pIC50: −log10 of the molar value. Read-outs that look alike come from different tables or passages of the source.

Experiments:
[1] = test system: HBV (genotype CAT); assay: Test Example 2-2: anti-HBV assay in PXB-cells (fresh human hepatocytes); assay type: cell-based; conditions: Hepatitis B virus, Hepatocyte
Protocol: Using fresh human hepatocytes (PXB-cells, manufactured by PhenixBio Co., Ltd.) collected from a PXB mouse (a chimeric mouse with human hepatocytes), the anti-HBV activity of the representative compounds was evaluated in the following procedure.
(§1) The following was used as a medium:
DMEM (manufactured by Sigma)+0.25 μg/mL insulin (manufactured by Wako)+1% penicillin/streptomycin. (manufactured by Sigma)+20 mmol/L HEPES (manufactured by Sigma)+15 μg/mL L-proline (manufactured by Sigma)+50 nmol/L dexamethasone (manufactured by Sigma)+5 ng/mL EGF (manufactured by Peprotech)+0.1 mmol/L ascorbic acid 2-phosphate (manufactured by Wako)+10% FBS+2% DMSO
Each of the test compounds) was further added to the medium to prepare a test solution containing each of the test compounds at various concentrations.
(1) PXB-cells seeded at a seeding density of 2.1×10^5 cells/cm^2 in a 96-well microliter plate were incubated in a 5% CO2 incubator at 37° C. until a day on which the cells were infected.
(2) A HBV (genotype CAT) prepared by transfecting an HBV plasmid into an HepG2 cell was suspended in the medium containing 4% PEG-8000, and added to the plate of (1) at about 30 copies/cell such that the PXB cells were infected (100 μL/well), and the plate was incubated in a 5% CO2 incubator at 37° C. for 1 day.
(3) The culture supernatant on day 1 post infection was removed and the cells were washed three times with DMEM containing 10% FBS and 1% penicillin/streptomycin. Then, the medium was added to the plate (100 μL/well) and the plate was incubated in a 5% CO2 incubator at 37° C. for 1 day.
(4) The culture supernatant on day 2 post infection was removed and the cells were washed three times with DMEM containing 10% FBS and 1% penicillin/streptomycin. Then, the medium was added to the plate (100 μL/well) and the plate was incubated in a 5% CO2 incubator at 37° C. for 5 days.
(5) The culture supernatant on day 7 post infection was removed, the medium was added to the plate (100 μL/well), and the plate was incubated in a 5% CO2 incubator at 37° C. for 5 days.
(6) The culture supernatant on day 12 post infection was removed, the medium was added to the plate (100 μL/well), and the plate was incubated in a 5% CO2 incubator at 37° C. for 5 days.
(§2) (7) The culture supernatant on day 17 post infection was removed, the test solution was added to the plate (100 μL/well), and the plate was incubated in a 5% CO2 incubator at 37° C. for 5 days. As a control without the compound added, the medium was added to the plate (100 μL/well) and the plate was incubated in a 5% CO2 incubator at 37° C. for 5 days.
as §2, with “(8)” for “(7)”, “22” for “17”
as §2, with “(9)” for “(7)”, “27” for “17”
(10) The culture supernatant on day 32 post infection was collected.
(11) The collected culture supernatant on day 32 post infection was treated with a mixture of Buffer AL (manufactured by QIAGEN) and Proteinase K (manufactured by Invitrogen). The amount of HBV-DNA in the obtained solution was absolutely quantified by a real-time PCR method. In addition, the amount of HBsAg in the culture supernatant was absolutely quantified by chemiluminescent enzyme immunoassay using Lumipulse (registered trademark) HBsAg-HQ (manufactured by Fujirebio Inc.). A relative viral load (%) with respect to a control without the compound added was each calculated. […]

[2] = test system: HBV; assay: Test Example 1-2: anti-HBV assay in HepG2.2.15 cells (test solution 100 μL/well); assay type: cell-based, hepatitis B virus; conditions: Hepatitis B virus, culture supernatant
Protocol: Using HepG2.2.15 cells (Proc. Natl. Acad. Sci. USA, 84, 1005-1009, 1987) which have an HBV genome introduced into a hepatoblastoma cell line, HepG2, and persistently produce a virus, the anti-HBV activity of the representative compounds was evaluated in the following procedure.
as §1
DMEM/F-12, GlutaMAX (manufactured by Invitrogen)+5 μg/mL insulin (manufactured by Wako)+1% penicillin/streptomycin (manufactured by Sigma)+10 mmol/L HEPES (manufactured by Sigma)+50 μmol/L hydrocortisone (manufactured by Sigma)+10% FBS
A mixture of a test compound with dimethyl sulfoxide (DMSO) was further added to the medium to obtain a final concentration of DMSO of 0.25% (v/v), and thus, test solutions containing the test compound at various concentrations were prepared. In addition, a test solution obtained by adding DMSO alone to the medium to obtain a final concentration of 0.25% (v/v) was prepared as a control without addition of a drug.
(1) The HepG2.2.15 cells were suspended in the medium to prepare a. HepG2.2.15 cell suspension at 4×10^5 cells/mL. The suspension was seeded in a 96-well microtiter plate (100 μL/well) and the plate was incubated in a 5% CO2 incubator at 37° C. for 2 days.
(2) The culture supernatant was removed and the cells were washed twice with PBS (−) (100 μL/well).
(3) The test solution (200 μL/well) was added to the plate of (2) and the plate was incubated in a 5% CO2 incubator at 37° C. for 4 days.
(4) The culture supernatant was removed, the test solution (200 μL/well) was added again to the plate, and the plate was incubated in a 5% CO2 incubator at 37° C. for 3 days.
(5) The culture supernatant was collected and treated with a mixture of Buffer AL (manufactured by QIAGEN) and Proteinase K (manufactured by Invitrogen). The amount of DNA of HBV (HBV-DNA) in the obtained solution was absolutely quantified by a real-time PCR method. In addition, HBsAg (hepatitis B surface antigen) in the culture supernatant was absolutely quantified by chemiluminescent enzyme immunoassay using Lumipulse (registered trademark) HBsAg-HQ (manufactured by Fujirebio Inc.). The relative viral load (%) of a well with the compound added to a well without the compound added was calculated. An IC50 of the compound was calculated using a FORECAST function (linear regression method) of Microsoft Office Excel 2007 by plotting the logarithm of the concentration against the relative viral load as a real number.
The IC50 of HBV-DNA was defined as a concentration (or a logarithm dilution of the culture supernatant) of the compound, in which the amount of HBV-DNA is reduced by 50% as compared a control without the compound added.
In addition, the IC50 of HBsAg was defined as a concentration (or a logarithm dilution of the culture supernatant) of the compound, in which the amount of HBsAg is reduced by 50% as compared a control without the compound added.
The test was performed by the same method as in Test Example 1-1 except that the amounts of the test solutions of (3) and (4) of Test Example 1-1 was changed to 100 μL/well.

[3] = read-out: IC50 HBV-DNA, PXB-cells infected with HBV genotype CAT, culture supernatant on day 32 post infection
[4] = read-out: IC50 HBsAg, PXB-cells infected with HBV genotype CAT, culture supernatant on day 32 post infection

SMILES	pIC50 [1, 3]	pIC50 [1, 4]	pIC50 ([2]; read-out: IC50 HBV-DNA)	pIC50 ([2]; read-out: IC50 HBsAg)
COCCO[C@@H]1CCN(c2ccc(-c3cc(=O)c(C(=O)O)cn3-c3ccc4nc(N5CCOCC5)sc4c3)cc2)C1 [Example 19-1, (R)-6-(4-(3-(2-methoxyethoxy)pyrrolidin-1-yl)phenyl)-1-(2-morpholinobenzo[d]thiazol-6-yl)-4-oxo-1,4-dihydropyridine-3-carboxylic acid]	> 6.30	> 6.30	–	–
CO[C@@H]1CCN(c2ccc(-c3cc(=O)c(C(=O)O)cn3-c3ccc4nc(N5CCOCC5)sc4c3)cc2F)C1 [Example 20-1, (R)-6-(3-fluoro-4-(3-methoxypyrrolidin-1-yl)phenyl)-1-(2-morpholinobenzo[d]thiazol-6-yl)-4-oxo-1,4-dihydropyridine-3-carboxylic acid]	> 6.30	> 6.30	–	–
COC1CN(c2nc3ccc(-n4cc(C(=O)O)c(=O)cc4-c4ccc5c(c4)OC[C@@H]4CCCN54)cc3s2)C1 [Example 18-2, (S)-1-(2-(3-methoxyazetidin-1-yl)benzo[d]thiazol-6-yl)-4-oxo-6-(2,3,3a,4-tetrahydro-1H-benzo[b]pyrrolo[1,2-d][1,4]oxazin-7-yl)-1,4-dihydropyridine-3-carboxylic acid]	> 6.30	> 6.30	–	–
CO[C@@H]1CCN(c2ccc(-c3cc(=O)c(C(=O)O)cn3-c3ccc4nc(N5CC(OCC6CCCO6)C5)sc4c3)cc2F)C1 (stereo partly drawn) [Example 23-3, 6-(3-fluoro-4-((R)-3-methoxypyrrolidin-1-yl)phenyl)-4-oxo-1-(2-(3-((tetrahydrofuran-2-yl)methoxy)azetidin-1-yl)benzo[d]thiazol-6-yl)-1,4-dihydropyridine-3-carboxylic acid]	–	–	9.21	8.77
CO[C@H]1CCN(c2nc3ccc(-n4cc(C(=O)O)c(=O)cc4-c4ccc(N5CCCC5)cc4)cc3s2)C1 [Example 17-3, (S)-1-(2-(3-methoxypyrrolidin-1-yl)benzo[d]thiazol-6-yl)-4-oxo-6-(4-(pyrrolidin-1-yl)phenyl)-1,4-dihydropyridine-3-carboxylic acid]	> 6.30	> 6.30	–	–
CN(C)[C@@H]1CCN(c2nc3ccc(-n4cc(C(=O)O)c(=O)cc4-c4ccc(N5CCCC5)cc4)cc3s2)C1 [Example 17-2, (R)-1-(2-(3-(dimethylamino)pyrrolidin-1-yl)benzo[d]thiazol-6-yl)-4-oxo-6-(4-(pyrrolidin-1-yl)phenyl)-1,4-dihydropyridine-3-carboxylic acid]	> 6.30	> 6.30	–	–
CO[C@@H]1CCN(c2ccc(-c3cc(=O)c(C(=O)O)cn3-c3ccc4nc(N5CC[C@H](N6CCOCC6)C5)sc4c3)cc2F)C1 [Example 23-1, 6-(3-fluoro-4-((R)-3-methoxypyrrolidin-1-yl)phenyl)-1-(2-((S)-3-morpholinopyrrolidin-1-yl)benzo[d]thiazol-6-yl)-4-oxo-1,4-dihydropyridine-3-carboxylic acid]	–	–	8.77	8.37
CN(C)[C@H]1CCN(c2nc3ccc(-n4cc(C(=O)O)c(=O)cc4-c4ccc(N5CCCC5)cc4)cc3s2)C1 [Example 17-1, (S)-1-(2-(3-(dimethylamino)pyrrolidin-1-yl)benzo[d]thiazol-6-yl)-4-oxo-6-(4-(pyrrolidin-1-yl)phenyl)-1,4-dihydropyridine-3-carboxylic acid]	> 6.30	> 6.30	–	–
COCCO[C@@H]1CCN(c2ccc(-c3cc(=O)c(C(=O)O)cn3-c3ccc4nc(N5CC[C@H](OC)C5)sc4c3)cc2)C1 [Example 21, 6-(4-((R)-3-(2-Methoxyethoxy)pyrrolidin-1-yl)phenyl)-1-(2-((S)-3-methoxypyrrolidin-1-yl)benzo[d]thiazol-6-yl)-4-oxo-1,4-dihydropyridine-3-carboxylic acid]	–	–	8.08	7.77
